# Legend:
# [1] = system: pigweed; test: Test B pre/postemergence pigweed; assay type: in vivo, Amaranthus retroflexus; conditions: for Redroot pigweed plant response rating: scale of 0 to 10 where 0 is no effect and 10 is complete control
# How it was run: (§1)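 Herbicidal effect was estimated by eye on a ten-point control scale after plants spent twelve to sixteen days in a greenhouse following soil or foliar treatment. Foliar sprays targeted plants at one to four leaves; all doses were formulated in a non-phytotoxic solvent with surfactant.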
# [2] = system: velvetleaf; test: Test B pre/postemergence velvetleaf; assay type: in vivo, Abutilon theophrasti; conditions: for Velvetleaf plant response rating: scale of 0 to 10 where 0 is no effect and 10 is complete control
# How it was run: as §1
# [3] = system: bedstraw; test: Test B pre/postemergence bedstraw; assay type: in vivo, Galium aparine
# How it was run: as §1
# [4] = system: rape; test: Test B pre/postemergence rape; assay type: in vivo, Brassica napus; conditions: for Rape plant response rating: scale of 0 to 10 where 0 is no effect and 10 is complete control
# How it was run: as §1
# [5] = system: blackgrass; test: Test B pre/postemergence blackgrass; assay type: in vivo, Alopecurus myosuroides
# How it was run: as §1
# [6] = system: wheat; test: Test B pre/postemergence wheat; assay type: in vivo, Triticum aestivum; conditions: for Wheat plant response rating: scale of 0 to 10 where 0 is no effect and 10 is complete control
# How it was run: as §1
# [7] = system: duck salad; test: Test B flood test duck salad; assay type: in vivo, Heteranthera limosa
# How it was run: (§2)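 Flood test on plants grown to the 2-leaf stage; treated plants kept in greenhouse twelve to sixteen days, then visually rated against controls on a 0 (no effect) to 10 (complete control) scale.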
# [8] = system: purple nutsedge; test: Test B pre/postemergence purple nutsedge; assay type: in vivo, Cyperus rotundus; conditions: for Nutsedge plant response rating: scale of 0 to 10 where 0 is no effect and 10 is complete control
# How it was run: as §1
# [9] = system: cocklebur; test: Test B pre/postemergence cocklebur; assay type: in vivo, Xanthium strumarium; conditions: for Cocklebur plant response rating: scale of 0 to 10 where 0 is no effect and 10 is complete control
# How it was run: as §1
# [10] = system: morningglory; test: Test B pre/postemergence morningglory; assay type: in vivo, Ipomoea hederacea; conditions: for Morningglory plant response rating: scale of 0 to 10 where 0 is no effect and 10 is complete control
# How it was run: as §1
# [11] = system: corn; test: Test B pre/postemergence corn; assay type: in vivo, Zea mays; conditions: for Corn plant response rating: scale of 0 to 10 where 0 is no effect and 10 is complete control
# How it was run: as §1
# [12] = system: wild oat; test: Test B pre/postemergence wild oat; assay type: in vivo, Avena fatua; conditions: for Wild oats plant response rating: scale of 0 to 10 where 0 is no effect and 10 is complete control
# How it was run: as §1
# [13] = system: surinam grass; test: Test B pre/postemergence surinam grass; assay type: in vivo, Brachiaria decumbens
# How it was run: as §1
# [14] = system: sugar beet; test: Test B pre/postemergence sugar beet; assay type: in vivo, Beta vulgaris; conditions: for Sugarbeets plant response rating: scale of 0 to 10 where 0 is no effect and 10 is complete control
# How it was run: as §1
# [15] = system: smallflower flatsedge; test: Test B flood test smallflower flatsedge; assay type: in vivo, Cyperus difformis
# How it was run: as §2
# [16] = system: crabgrass; test: Test B pre/postemergence crabgrass; assay type: in vivo, Digitaria sanguinalis; conditions: for Crabgrass plant response rating: scale of 0 to 10 where 0 is no effect and 10 is complete control
# How it was run: as §1
# [17] = Postemergence, Rate 125 g/ha, scale 0 to 10, 0 is no effect, 10 is complete control
# [18] = Rate 500 g/ha, Postemergence, scale 0 to 10, 0 no effect, 10 complete control
# [19] = Preemergence, Rate 62 g/ha, scale of 0 to 10 where 0 is no effect and 10 is complete control
# [20] = Preemergence, Rate 500 g/ha, scale of 0 to 10 where 0 is no effect and 10 is complete control
# [21] = Rate 62 g/ha, Postemergence, scale of 0 to 10 where 0 is no effect and 10 is complete control
# [22] = Rate 250 g/ha, Postemergence, scale of 0 to 10 where 0 is no effect and 10 is complete control
# [23] = Preemergence, Rate 250 g/ha, scale of 0 to 10 where 0 is no effect and 10 is complete control
# [24] = Rate 62 g/ha, headed Pre-emergence (flood test species), scale 0 to 10 (0 no effect, 10 complete control)
# [25] = Rate 125 g/ha, Pre-emergence, flood test species, scale 0 to 10 where 0 is no effect and 10 is complete control
# [26] = Rate 250 g/ha, Pre-emergence, flood-test species, scale 0 to 10, 0 is no effect, 10 is complete control
# [27] = Rate 500 g/ha, Pre-emergence, flood test species, scale 0 to 10 (0 no effect, 10 complete control)
structure (smiles),measurement,setting,value
CC(C)N(C(=O)n1oc(=O)n(C2CCCCCC2)c1=O)c1ccc(F)cc1 [Compound 340],"Plant response rating, Redroot pigweed",[1]; [17],4
same,Redroot pigweed plant response rating,"[1]; Preemergence, Rate 62 g/ha",0
same,Redroot pigweed plant response rating (0 to 10 scale),"[1]; Preemergence, Rate 125 g/ha",0
same,Redroot pigweed plant response rating,"[1]; Preemergence, Rate 250 g/ha",3
same,Redroot pigweed plant response rating,"[1]; Preemergence, Rate 500 g/ha",4
same,Redroot pigweed plant response rating,"[1]; Rate 62 g/ha, Postemergence",2
same,"Plant response rating, Velvetleaf",[2]; [17],0
same,Velvetleaf plant response rating,"[2]; Preemergence, Rate 62 g/ha",0
same,Velvetleaf plant response rating (0 to 10 scale),"[2]; Preemergence, Rate 125 g/ha",0
same,Velvetleaf plant response rating,"[2]; Preemergence, Rate 250 g/ha",0
same,Velvetleaf plant response rating,"[2]; Preemergence, Rate 500 g/ha",2
same,Velvetleaf plant response rating,"[2]; Rate 62 g/ha, Postemergence",0
same,"Plant response rating, Velvetleaf",[2]; [18],3
same,"Plant response rating, Bedstraw",[3]; [17],7
same,Bedstraw plant response rating,[3]; [19],0
same,Bedstraw plant response rating (0 to 10 scale),"[3]; Preemergence, Rate 125 g/ha",0
same,Bedstraw plant response rating,[3]; [20],5
same,Bedstraw plant response rating,[3]; [21],3
same,"Plant response rating, Bedstraw",[3]; [22],7
same,"Plant response rating, Bedstraw",[3]; [18],8
same,"Plant response rating, Rape",[4]; [17],2
same,Rape plant response rating,"[4]; Preemergence, Rate 62 g/ha",0
same,Rape plant response rating (0 to 10 scale),"[4]; Preemergence, Rate 125 g/ha",0
same,Rape plant response rating,"[4]; Preemergence, Rate 250 g/ha",0
same,Rape plant response rating,"[4]; Preemergence, Rate 500 g/ha",0
same,Rape plant response rating,"[4]; Rate 62 g/ha, Postemergence",2
same,"Plant response rating, Rape",[4]; [18],6
same,"Plant response rating, Blackgrass",[5]; [17],0
same,Blackgrass plant response rating,[5]; [19],0
same,Blackgrass plant response rating (0 to 10 scale),"[5]; Preemergence, Rate 125 g/ha",2
same,Blackgrass plant response rating,[5]; [23],3
same,Blackgrass plant response rating,[5]; [20],8
same,Blackgrass plant response rating,[5]; [21],0
same,"Plant response rating, Blackgrass",[5]; [22],3
same,"Plant response rating, Blackgrass",[5]; [18],8
same,"Plant response rating, Wheat",[6]; [17],0
same,Wheat plant response rating,"[6]; Preemergence, Rate 62 g/ha",0
same,Wheat plant response rating (0 to 10 scale),"[6]; Preemergence, Rate 125 g/ha",0
same,Wheat plant response rating,"[6]; Preemergence, Rate 250 g/ha",0
same,Wheat plant response rating,"[6]; Preemergence, Rate 500 g/ha",0
same,Wheat plant response rating,"[6]; Rate 62 g/ha, Postemergence",0
same,"Plant response rating, Wheat",[6]; [18],0
same,Ducksalad plant response rating,[7]; [24],0
same,Ducksalad plant response rating,[7]; [25],0
same,Ducksalad plant response rating,[7]; [26],0
same,Ducksalad plant response rating,[7]; [27],5
same,"Plant response rating, Nutsedge",[8]; [17],0
same,Nutsedge plant response rating,"[8]; Preemergence, Rate 62 g/ha",0
same,Nutsedge plant response rating (0 to 10 scale),"[8]; Preemergence, Rate 125 g/ha",0
same,Nutsedge plant response rating,"[8]; Preemergence, Rate 250 g/ha",0
same,Nutsedge plant response rating,"[8]; Preemergence, Rate 500 g/ha",0
same,Nutsedge plant response rating,"[8]; Rate 62 g/ha, Postemergence",0
same,"Plant response rating, Nutsedge",[8]; [18],0
same,"Plant response rating, Cocklebur",[9]; [17],0
same,Cocklebur plant response rating,"[9]; Preemergence, Rate 62 g/ha",0
same,Cocklebur plant response rating (0 to 10 scale),"[9]; Preemergence, Rate 125 g/ha",0
same,Cocklebur plant response rating,"[9]; Preemergence, Rate 250 g/ha",0
same,Cocklebur plant response rating,"[9]; Preemergence, Rate 500 g/ha",0
same,Cocklebur plant response rating,"[9]; Rate 62 g/ha, Postemergence",0
same,"Plant response rating, Cocklebur",[9]; [18],0
same,"Plant response rating, Morningglory",[10]; [17],7
same,Morningglory plant response rating,"[10]; Preemergence, Rate 62 g/ha",0
same,Morningglory plant response rating (0 to 10 scale),"[10]; Preemergence, Rate 125 g/ha",0
same,Morningglory plant response rating,"[10]; Preemergence, Rate 250 g/ha",0
same,Morningglory plant response rating,"[10]; Preemergence, Rate 500 g/ha",0
same,Morningglory plant response rating,"[10]; Rate 62 g/ha, Postemergence",2
same,"Plant response rating, Morningglory",[10]; [18],10
same,"Plant response rating, Corn",[11]; [17],0
same,Corn plant response rating,"[11]; Preemergence, Rate 62 g/ha",0
same,Corn plant response rating (0 to 10 scale),"[11]; Preemergence, Rate 125 g/ha",0
same,Corn plant response rating,"[11]; Preemergence, Rate 250 g/ha",0
same,Corn plant response rating,"[11]; Preemergence, Rate 500 g/ha",0
same,Corn plant response rating,"[11]; Rate 62 g/ha, Postemergence",0
same,"Plant response rating, Corn",[11]; [18],0
same,"Plant response rating, Wild oats",[12]; [17],0
same,Wild oats plant response rating,"[12]; Preemergence, Rate 62 g/ha",0
same,Wild oats plant response rating (0 to 10 scale),"[12]; Preemergence, Rate 125 g/ha",0
same,Wild oats plant response rating,"[12]; Preemergence, Rate 250 g/ha",2
same,Wild oats plant response rating,"[12]; Preemergence, Rate 500 g/ha",3
same,Wild oats plant response rating,"[12]; Rate 62 g/ha, Postemergence",0
same,"Plant response rating, Wild oats",[12]; [18],0
same,"Plant response rating, B. signalgrass",[13]; [17],0
same,B. signalgrass plant response rating,[13]; [19],0
same,"B. signalgrass plant response rating (0 to 10 scale, 0 is no effect, 10 is complete control)","[13]; Preemergence, Rate 125 g/ha",0
same,B. signalgrass plant response rating,[13]; [23],1
same,B. signalgrass plant response rating,[13]; [20],2
same,B. signalgrass plant response rating,[13]; [21],0
same,"Plant response rating, B. signalgrass",[13]; [22],0
same,"Plant response rating, B. signalgrass",[13]; [18],0
same,"Plant response rating, Sugarbeets",[14]; [17],2
same,Sugarbeets plant response rating,"[14]; Preemergence, Rate 62 g/ha",0
same,Sugarbeets plant response rating (0 to 10 scale),"[14]; Preemergence, Rate 125 g/ha",0
same,Sugarbeets plant response rating,"[14]; Preemergence, Rate 250 g/ha",0
same,Sugarbeets plant response rating,"[14]; Preemergence, Rate 500 g/ha",0
same,Sugarbeets plant response rating,"[14]; Rate 62 g/ha, Postemergence",0
same,"Plant response rating, Sugarbeets",[14]; [18],6
same,S. Flatsedge plant response rating,[15]; [24],0
same,S. Flatsedge plant response rating,[15]; [25],0
same,S. Flatsedge plant response rating,[15]; [26],2
same,S. Flatsedge plant response rating,[15]; [27],9
same,"Plant response rating, Crabgrass",[16]; [17],0
same,Crabgrass plant response rating,"[16]; Preemergence, Rate 62 g/ha",0
same,Crabgrass plant response rating (0 to 10 scale),"[16]; Preemergence, Rate 125 g/ha",3
same,Crabgrass plant response rating,"[16]; Preemergence, Rate 250 g/ha",8
same,Crabgrass plant response rating,"[16]; Preemergence, Rate 500 g/ha",9
same,Crabgrass plant response rating,"[16]; Rate 62 g/ha, Postemergence",0
same,"Plant response rating, Crabgrass",[16]; [18],2

# Reference: patent US6737383B1, “Herbicidal oxadiazolidines” (priority 1999, dated 2004)
